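Compound exposure: 48 hours, 5 concentrations, 96-well plates. Here, GI50 denotes the concentration required for 50% inhibition of growth.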 Activity calls are given as the source filed them. Rule as the data show it: active = GI50 up to about 1.1 µM and inactive = higher. Where a SMILES comes first, the peptide text is derived from it. [ ]: non-standard residue; d: D form. pGlu = O=C1CC[CH](C(=O)O)N1
Experiments:
Assay in all cases: NCI-60 cell line screen, 48 h
[1] = test system: OVCAR-5
[2] = test system: NCI-H522
[3] = test system: HOP-62
[4] = test system: NCI-H226
[5] = test system: SF-539
[6] = test system: MDA-N
[7] = test system: SR
[8] = test system: MDA-MB-231
[9] = test system: Hs-578T
[10] = test system: 786-0
[11] = test system: SF-268
[12] = test system: MOLT-4
[13] = test system: SNB-75
[14] = test system: UACC-62
[15] = test system: HCC 2998
[16] = test system: MCF7
[17] = test system: EKVX
[18] = test system: OVCAR-4
[19] = test system: NCI-H23
[20] = test system: Malme-3M

Structure (SMILES)	GI50 [1]	GI50 [2]	GI50 [3]	GI50 [4]	GI50 [5]	GI50 [6]	GI50 [7]	GI50 [8]	GI50 [9]	GI50 [10]	GI50 [11]	GI50 [12]	GI50 [13]	GI50 [14]	GI50 [15]	GI50 [16]	GI50 [17]	GI50 [18]	GI50 [19]	GI50 [20]
NC(CCC(=O)NC(CSC(=O)N(O)c1ccc(Cl)cc1)C(=O)NCC(=O)O)C(=O)O (centres undefined)	> 0.5 µM (active)	> 0.5 µM (active)	> 0.5 µM (active)	> 0.5 µM (active)	> 0.5 µM (active)	> 0.5 µM (active)	> 0.5 µM (active)	> 0.5 µM (active)	> 0.5 µM (active)	> 0.5 µM (active)	> 0.5 µM (active)	> 0.5 µM (active)	> 0.5 µM (active)	> 0.5 µM (active)	> 0.5 µM (active)	> 0.5 µM (active)	> 0.5 µM (active)	> 0.5 µM (active)	> 0.5 µM (active)	–
Cc1ccc(-c2cc(-c3ccco3)c(C#N)c(=S)[nH]2)cc1	> 100 µM (inactive)	44.2 µM (inactive)	> 100 µM (inactive)	31.5 µM (inactive)	–	> 10 µM (inactive)	42.5 µM (inactive)	43.2 µM (inactive)	38.5 µM (inactive)	77.3 µM (inactive)	40.6 µM (inactive)	32.2 µM (inactive)	49.8 µM (inactive)	26.8 µM (inactive)	67.5 µM (inactive)	16.2 µM (inactive)	90.6 µM (inactive)	75.5 µM (inactive)	29.9 µM (inactive)	24.2 µM (inactive)
CSc1cc(Cl)c(C)cc1S(=O)(=O)NC(=O)NNc1ccc(F)c(Cl)c1	> 100 µM (inactive)	> 100 µM (inactive)	> 100 µM (inactive)	> 100 µM (inactive)	> 100 µM (inactive)	> 100 µM (inactive)	61 µM (inactive)	> 100 µM (inactive)	> 100 µM (inactive)	> 100 µM (inactive)	> 100 µM (inactive)	45.7 µM (inactive)	> 100 µM (inactive)	–	> 100 µM (inactive)	> 100 µM (inactive)	> 100 µM (inactive)	> 100 µM (inactive)	–	> 100 µM (inactive)
CC1(c2ccccc2)N=c2[nH]cnc2=C(C(N)=O)N1 (centres undefined)	> 100 µM (inactive)	> 100 µM (inactive)	> 100 µM (inactive)	> 100 µM (inactive)	> 100 µM (inactive)	> 100 µM (inactive)	> 100 µM (inactive)	> 100 µM (inactive)	> 100 µM (inactive)	> 100 µM (inactive)	> 100 µM (inactive)	–	> 100 µM (inactive)	> 100 µM (inactive)	> 100 µM (inactive)	> 100 µM (inactive)	> 100 µM (inactive)	> 100 µM (inactive)	> 100 µM (inactive)	> 100 µM (inactive)
CN(C)CCn1c(=O)nc2c3c(c([N+](=O)[O-])ccc31)Nc1ccc(O)cc1-2	15.1 µM (inactive)	1.43 µM (inactive)	2.47 µM (inactive)	3.37 µM (inactive)	1.7 µM (inactive)	6.7 µM (inactive)	1.12 µM (inactive)	2.07 µM (inactive)	3.95 µM (inactive)	1.67 µM (inactive)	1.95 µM (inactive)	0.0638 µM (active)	6.28 µM (inactive)	4.5 µM (inactive)	2.48 µM (inactive)	1.32 µM (inactive)	8.04 µM (inactive)	9.68 µM (inactive)	5.46 µM (inactive)	3.67 µM (inactive)
Cc1cc2[nH]c(=NS(=O)(=O)c3cc(C)c(Cl)cc3S)[nH]c2cc1C	> 100 µM (inactive)	> 100 µM (inactive)	23.1 µM (inactive)	–	68.9 µM (inactive)	> 100 µM (inactive)	19.4 µM (inactive)	> 100 µM (inactive)	> 100 µM (inactive)	61.7 µM (inactive)	83.8 µM (inactive)	21.5 µM (inactive)	> 100 µM (inactive)	> 100 µM (inactive)	> 100 µM (inactive)	60.8 µM (inactive)	24.1 µM (inactive)	> 100 µM (inactive)	> 100 µM (inactive)	> 100 µM (inactive)
CC(NS(C)(=O)=O)c1ccccc1 (centres undefined)	> 100 µM (inactive)	> 100 µM (inactive)	> 100 µM (inactive)	> 100 µM (inactive)	> 100 µM (inactive)	> 100 µM (inactive)	> 100 µM (inactive)	> 100 µM (inactive)	> 100 µM (inactive)	> 100 µM (inactive)	–	> 100 µM (inactive)	> 100 µM (inactive)	> 100 µM (inactive)	> 100 µM (inactive)	> 100 µM (inactive)	–	> 100 µM (inactive)	> 100 µM (inactive)	> 100 µM (inactive)
COC1=C(C)C(=O)C2=C(C1=O)C1C3CC4=C(C(=O)C(OC)=C(C)C4=O)C(CNC(=O)C(C)O)N3C(C#N)C(C2)N1C (centres undefined)	0.0269 µM (active)	< 0.01 µM (active)	0.0149 µM (active)	0.0212 µM (active)	< 0.01 µM (active)	< 0.01 µM (active)	< 0.01 µM (active)	< 0.01 µM (active)	< 0.01 µM (active)	< 0.0113 µM (active)	< 0.01 µM (active)	< 0.01 µM (active)	< 0.0104 µM (active)	< 0.01 µM (active)	< 0.0113 µM (active)	< 0.01 µM (active)	0.0199 µM (active)	0.026 µM (active)	< 0.0178 µM (active)	< 0.01 µM (active)
CC(C)(C)CC(C)(C)NC(=S)NO	> 100 µM (inactive)	> 100 µM (inactive)	> 100 µM (inactive)	> 100 µM (inactive)	> 100 µM (inactive)	> 100 µM (inactive)	> 100 µM (inactive)	> 100 µM (inactive)	> 100 µM (inactive)	> 100 µM (inactive)	> 100 µM (inactive)	> 100 µM (inactive)	> 100 µM (inactive)	> 100 µM (inactive)	> 100 µM (inactive)	> 100 µM (inactive)	> 100 µM (inactive)	> 100 µM (inactive)	> 100 µM (inactive)	> 100 µM (inactive)
NCCCCNCCCN1CCOC1=O	> 100 µM (inactive)	> 100 µM (inactive)	> 100 µM (inactive)	> 100 µM (inactive)	> 100 µM (inactive)	> 100 µM (inactive)	> 100 µM (inactive)	> 100 µM (inactive)	> 100 µM (inactive)	> 100 µM (inactive)	> 100 µM (inactive)	> 100 µM (inactive)	> 100 µM (inactive)	> 100 µM (inactive)	> 100 µM (inactive)	> 100 µM (inactive)	> 100 µM (inactive)	–	> 100 µM (inactive)	> 100 µM (inactive)
CC(C)c1ccc2c(c1)/C(=C1/Nc3ccccc3C1=O)C(=O)N2	27.7 µM (inactive)	25.5 µM (inactive)	4.57 µM (inactive)	3.62 µM (inactive)	–	28.8 µM (inactive)	18.4 µM (inactive)	5.85 µM (inactive)	7.64 µM (inactive)	3.52 µM (inactive)	15.3 µM (inactive)	22.1 µM (inactive)	3.4 µM (inactive)	14.9 µM (inactive)	19.2 µM (inactive)	0.0188 µM (active)	5.7 µM (inactive)	1.7 µM (inactive)	24.4 µM (inactive)	46.8 µM (inactive)
CCN(CC)CCNC(=O)c1ccc(C)c(OCc2ccccc2)c1[N+](=O)[O-]	35.9 µM (inactive)	27 µM (inactive)	28.6 µM (inactive)	44.8 µM (inactive)	33.7 µM (inactive)	19.9 µM (inactive)	27.7 µM (inactive)	35.6 µM (inactive)	28.6 µM (inactive)	33.3 µM (inactive)	63.2 µM (inactive)	28.7 µM (inactive)	18 µM (inactive)	20.7 µM (inactive)	28.8 µM (inactive)	22.3 µM (inactive)	68.5 µM (inactive)	56.8 µM (inactive)	54.3 µM (inactive)	16.9 µM (inactive)
CNC(=S)N/N=C/c1cccc(C)n1	37.8 µM (inactive)	27.2 µM (inactive)	20.7 µM (inactive)	> 50.7 µM (inactive)	18.4 µM (inactive)	42 µM (inactive)	> 41.9 µM (inactive)	39.3 µM (inactive)	> 91.8 µM (inactive)	24.6 µM (inactive)	25.9 µM (inactive)	39.8 µM (inactive)	37.9 µM (inactive)	23.6 µM (inactive)	> 54 µM (inactive)	38.6 µM (inactive)	46.6 µM (inactive)	> 59.7 µM (inactive)	31.4 µM (inactive)	37.2 µM (inactive)
CC(NC(=O)C1CCC(=O)N1)C(=O)N1CCCC1C(N)=O (stereo not drawn) ([pGlu]-Ala-Pro-NH2; configuration not given here)	> 100 µM (inactive)	> 100 µM (inactive)	> 100 µM (inactive)	> 100 µM (inactive)	–	> 100 µM (inactive)	> 100 µM (inactive)	> 100 µM (inactive)	> 100 µM (inactive)	61.7 µM (inactive)	> 100 µM (inactive)	> 100 µM (inactive)	> 100 µM (inactive)	> 100 µM (inactive)	> 100 µM (inactive)	> 100 µM (inactive)	> 100 µM (inactive)	> 100 µM (inactive)	> 100 µM (inactive)	> 100 µM (inactive)
